The values that follow come from ChEMBL document CHEMBL5465560, “Selectivity Literature for EUbOPEN Chemogenomic Library” (2024).

Molecules are shown by their SMILES.

In test [1] the target is Mitogen-activated protein kinase 1 (Homo sapiens, UniProt P28482). As to the kind of experiment: Selectivity interaction (ActivX KiNativ screen (ex vivo kinase selectivity in human PBMCs)) EUB0001619a MAPK1. Conditions: PBMC, at 1 µM. It counts as cell-based.
The subject of test [2] is Receptor-type tyrosine-protein kinase FLT3 (Homo sapiens), P36888 [UNDEFINED MUTATION]. The settings on record: at 10 µM.
The target of test [3] is T1, Myosin light chain kinase family member 4 (Homo sapiens) (UniProt Q86YV6).
T1 sequence (whole entry): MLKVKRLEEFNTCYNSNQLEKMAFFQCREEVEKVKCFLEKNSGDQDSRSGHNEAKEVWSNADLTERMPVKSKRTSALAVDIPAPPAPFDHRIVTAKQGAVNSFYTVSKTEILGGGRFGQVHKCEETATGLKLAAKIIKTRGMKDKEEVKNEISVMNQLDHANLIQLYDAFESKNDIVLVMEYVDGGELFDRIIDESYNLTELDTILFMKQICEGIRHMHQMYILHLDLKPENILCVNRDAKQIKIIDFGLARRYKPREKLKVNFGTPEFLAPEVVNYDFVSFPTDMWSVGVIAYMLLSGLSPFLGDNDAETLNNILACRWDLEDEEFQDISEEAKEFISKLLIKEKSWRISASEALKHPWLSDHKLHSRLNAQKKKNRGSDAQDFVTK
The experiment in a line: Selectivity interaction (KinomeScan (DiscoverX)) EUB0000607a MYLK4. The settings on record: at 10 µM.

Test [4] addresses LIM domain kinase 2 (Homo sapiens) (UniProt P53671). As to the kind of experiment: Selectivity interaction (KinomeScan (DiscoverX)) EUB0000045b LIMK2.
Test [5] has as its target T2, Myotonin-protein kinase (Homo sapiens) (UniProt Q09013).
T2 sequence (whole entry): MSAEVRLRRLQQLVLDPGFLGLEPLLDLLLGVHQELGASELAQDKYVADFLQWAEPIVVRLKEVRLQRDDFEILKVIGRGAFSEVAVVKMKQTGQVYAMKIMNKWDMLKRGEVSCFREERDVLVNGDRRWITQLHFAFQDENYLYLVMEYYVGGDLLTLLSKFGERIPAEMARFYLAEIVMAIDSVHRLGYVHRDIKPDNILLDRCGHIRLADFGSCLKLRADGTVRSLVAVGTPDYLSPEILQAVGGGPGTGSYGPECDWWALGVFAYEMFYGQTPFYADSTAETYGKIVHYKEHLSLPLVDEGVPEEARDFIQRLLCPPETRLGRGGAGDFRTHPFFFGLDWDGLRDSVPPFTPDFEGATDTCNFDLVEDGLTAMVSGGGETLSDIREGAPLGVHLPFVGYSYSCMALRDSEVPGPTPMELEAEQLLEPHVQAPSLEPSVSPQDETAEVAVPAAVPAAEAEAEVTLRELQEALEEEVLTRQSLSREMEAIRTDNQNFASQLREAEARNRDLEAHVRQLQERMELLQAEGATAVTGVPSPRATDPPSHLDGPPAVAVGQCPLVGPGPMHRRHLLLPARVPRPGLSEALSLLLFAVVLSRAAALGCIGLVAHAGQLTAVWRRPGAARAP
The experiment in a line: Selectivity interaction (KinomeScan (DiscoverX)) EUB0000045b DMPK.

The target of test [6] is T3, Cytoplasmic tyrosine-protein kinase BMX (Homo sapiens) (UniProt P51813).
T3 sequence (whole entry): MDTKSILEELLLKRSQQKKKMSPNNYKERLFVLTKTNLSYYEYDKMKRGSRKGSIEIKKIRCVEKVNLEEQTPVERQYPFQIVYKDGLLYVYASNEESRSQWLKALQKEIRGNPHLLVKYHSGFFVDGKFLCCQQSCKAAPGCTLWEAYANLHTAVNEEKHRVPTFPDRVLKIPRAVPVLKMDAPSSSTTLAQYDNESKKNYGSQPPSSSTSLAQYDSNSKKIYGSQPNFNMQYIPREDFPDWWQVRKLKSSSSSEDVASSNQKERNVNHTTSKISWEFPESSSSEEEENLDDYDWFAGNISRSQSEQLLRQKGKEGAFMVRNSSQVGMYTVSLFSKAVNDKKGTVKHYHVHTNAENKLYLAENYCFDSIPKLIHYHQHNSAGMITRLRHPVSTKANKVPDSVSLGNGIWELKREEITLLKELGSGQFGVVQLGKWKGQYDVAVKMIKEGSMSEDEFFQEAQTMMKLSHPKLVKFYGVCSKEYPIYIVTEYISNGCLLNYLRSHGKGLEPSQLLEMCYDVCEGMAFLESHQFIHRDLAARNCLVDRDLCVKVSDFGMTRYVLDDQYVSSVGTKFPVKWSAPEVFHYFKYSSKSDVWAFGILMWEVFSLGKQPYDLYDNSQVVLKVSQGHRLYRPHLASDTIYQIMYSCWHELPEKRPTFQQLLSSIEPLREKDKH
The experiment in a line: Selectivity interaction (KinomeScan (DiscoverX)) EUB0000045b BMX.

The target in test [7] is Phosphatidylinositol 4,5-bisphosphate 3-kinase catalytic subunit gamma isoform (Homo sapiens) (UniProt P48736). As to the kind of experiment: Selectivity interaction (Kinase panel (literature)) EUB0001199aCl PIK3CG. Conditions: at 1 µM.
Phosphatidylinositol 4,5-bisphosphate 3-kinase catalytic subunit gamma isoform (Homo sapiens), sequence (P48736 whole entry, looked up, canonical isoform): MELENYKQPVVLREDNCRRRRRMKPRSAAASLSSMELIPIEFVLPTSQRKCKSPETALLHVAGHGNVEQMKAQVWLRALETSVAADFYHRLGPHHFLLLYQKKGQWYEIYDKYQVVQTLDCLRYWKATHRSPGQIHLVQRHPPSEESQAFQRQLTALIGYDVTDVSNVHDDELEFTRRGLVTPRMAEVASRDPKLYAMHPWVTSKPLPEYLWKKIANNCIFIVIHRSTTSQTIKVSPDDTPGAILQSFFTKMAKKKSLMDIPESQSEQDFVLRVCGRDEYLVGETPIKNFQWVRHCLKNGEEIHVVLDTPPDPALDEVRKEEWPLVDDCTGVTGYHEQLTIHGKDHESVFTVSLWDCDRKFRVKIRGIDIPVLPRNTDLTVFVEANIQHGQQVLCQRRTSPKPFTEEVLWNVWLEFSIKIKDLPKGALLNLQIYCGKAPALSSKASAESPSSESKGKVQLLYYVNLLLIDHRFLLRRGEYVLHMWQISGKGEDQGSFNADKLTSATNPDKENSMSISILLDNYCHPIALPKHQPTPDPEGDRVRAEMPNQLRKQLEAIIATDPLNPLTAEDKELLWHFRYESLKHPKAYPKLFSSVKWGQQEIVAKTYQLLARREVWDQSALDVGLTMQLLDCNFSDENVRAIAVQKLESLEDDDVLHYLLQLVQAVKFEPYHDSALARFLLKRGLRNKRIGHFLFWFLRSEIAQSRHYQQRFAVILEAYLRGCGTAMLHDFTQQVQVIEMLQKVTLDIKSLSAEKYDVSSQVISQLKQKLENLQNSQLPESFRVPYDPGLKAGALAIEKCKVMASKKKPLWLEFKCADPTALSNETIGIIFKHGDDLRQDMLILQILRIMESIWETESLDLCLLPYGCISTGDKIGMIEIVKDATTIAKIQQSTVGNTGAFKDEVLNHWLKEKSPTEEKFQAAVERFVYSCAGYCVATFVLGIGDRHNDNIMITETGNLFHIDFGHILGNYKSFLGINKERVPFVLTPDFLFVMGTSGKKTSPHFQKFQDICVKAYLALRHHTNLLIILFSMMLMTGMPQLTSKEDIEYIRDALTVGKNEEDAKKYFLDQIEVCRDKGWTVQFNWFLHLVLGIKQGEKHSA
Test [8] concerns the target Maternal embryonic leucine zipper kinase (Homo sapiens) (UniProt Q14680). As to the kind of experiment: Selectivity interaction (ProQinase) EUB0000171b MELK.
For test [9], the target named is Ephrin type-A receptor 7 (Homo sapiens) (UniProt Q15375). As to the kind of experiment: Selectivity interaction (KinomeScan (DiscoverX)) EUB0001049a EPHA7. Conditions: at 1 µM.
The target of test [10] is Cyclin-dependent kinase 15 (Homo sapiens) (UniProt Q96Q40). The experiment in a line: Selectivity interaction (KinomeScan (DiscoverX)) EUB0001049a CDK15. Conditions: at 1 µM.
Test [11] concerns the target Histamine H4 receptor (Homo sapiens) (UniProt Q9H3N8). As to the kind of experiment: Selectivity interaction (GPCR panel (PDSP screen)) EUB0001079a HRH4. Conditions: at 10 µM.
Test [12] deals with Serine/threonine-protein kinase 33 (Homo sapiens) (UniProt Q9BYT3). As to the kind of experiment: Selectivity interaction (KinomeScan (DiscoverX)) EUB0000229b STK33. Conditions: at 10 µM.
Serine/threonine-protein kinase 33 (Homo sapiens), sequence (Q9BYT3 whole entry, looked up): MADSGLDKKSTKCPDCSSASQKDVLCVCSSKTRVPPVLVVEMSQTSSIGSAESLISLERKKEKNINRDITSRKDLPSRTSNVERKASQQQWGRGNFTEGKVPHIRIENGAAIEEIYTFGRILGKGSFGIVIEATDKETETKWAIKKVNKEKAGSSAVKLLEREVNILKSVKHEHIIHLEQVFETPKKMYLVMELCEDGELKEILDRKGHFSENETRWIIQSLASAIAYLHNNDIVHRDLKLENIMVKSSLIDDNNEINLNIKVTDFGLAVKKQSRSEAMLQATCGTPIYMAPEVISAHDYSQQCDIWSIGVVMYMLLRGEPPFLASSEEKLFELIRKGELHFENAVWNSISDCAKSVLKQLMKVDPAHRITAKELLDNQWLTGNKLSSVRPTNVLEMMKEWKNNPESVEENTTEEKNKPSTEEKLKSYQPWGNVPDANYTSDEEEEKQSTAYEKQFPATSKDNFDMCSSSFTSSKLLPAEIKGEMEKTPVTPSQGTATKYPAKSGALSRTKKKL
Test [13] has as its target 5'-AMP-activated protein kinase catalytic subunit alpha-2 (Homo sapiens) (UniProt P54646). The experiment in a line: Selectivity interaction (Kinase panel (KiNativ target engagement assay in Jurkat cells)) EUB0001635a PRKAA2. The format is cell-based. Conditions: at 1 µM.

Maternal embryonic leucine zipper kinase (Homo sapiens), sequence (Q14680 whole entry, looked up): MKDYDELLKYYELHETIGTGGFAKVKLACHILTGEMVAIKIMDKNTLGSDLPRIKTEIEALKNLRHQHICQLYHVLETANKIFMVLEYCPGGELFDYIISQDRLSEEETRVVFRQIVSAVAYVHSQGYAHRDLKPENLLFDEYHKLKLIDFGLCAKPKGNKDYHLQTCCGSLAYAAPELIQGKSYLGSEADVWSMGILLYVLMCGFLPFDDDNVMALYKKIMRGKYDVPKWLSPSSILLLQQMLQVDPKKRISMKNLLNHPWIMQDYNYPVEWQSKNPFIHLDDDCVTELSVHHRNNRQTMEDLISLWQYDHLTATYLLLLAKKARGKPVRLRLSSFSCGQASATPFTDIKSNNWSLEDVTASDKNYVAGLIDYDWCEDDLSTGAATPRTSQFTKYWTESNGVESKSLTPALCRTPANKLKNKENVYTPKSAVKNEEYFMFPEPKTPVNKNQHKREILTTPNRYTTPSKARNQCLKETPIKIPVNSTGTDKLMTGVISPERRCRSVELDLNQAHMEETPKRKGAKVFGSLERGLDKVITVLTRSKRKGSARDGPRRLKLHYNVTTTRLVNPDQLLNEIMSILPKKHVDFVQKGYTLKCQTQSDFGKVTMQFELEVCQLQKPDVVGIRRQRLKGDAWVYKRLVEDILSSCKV
LIM domain kinase 2 (Homo sapiens), sequence (P53671 whole entry, looked up, the tested form may be a part): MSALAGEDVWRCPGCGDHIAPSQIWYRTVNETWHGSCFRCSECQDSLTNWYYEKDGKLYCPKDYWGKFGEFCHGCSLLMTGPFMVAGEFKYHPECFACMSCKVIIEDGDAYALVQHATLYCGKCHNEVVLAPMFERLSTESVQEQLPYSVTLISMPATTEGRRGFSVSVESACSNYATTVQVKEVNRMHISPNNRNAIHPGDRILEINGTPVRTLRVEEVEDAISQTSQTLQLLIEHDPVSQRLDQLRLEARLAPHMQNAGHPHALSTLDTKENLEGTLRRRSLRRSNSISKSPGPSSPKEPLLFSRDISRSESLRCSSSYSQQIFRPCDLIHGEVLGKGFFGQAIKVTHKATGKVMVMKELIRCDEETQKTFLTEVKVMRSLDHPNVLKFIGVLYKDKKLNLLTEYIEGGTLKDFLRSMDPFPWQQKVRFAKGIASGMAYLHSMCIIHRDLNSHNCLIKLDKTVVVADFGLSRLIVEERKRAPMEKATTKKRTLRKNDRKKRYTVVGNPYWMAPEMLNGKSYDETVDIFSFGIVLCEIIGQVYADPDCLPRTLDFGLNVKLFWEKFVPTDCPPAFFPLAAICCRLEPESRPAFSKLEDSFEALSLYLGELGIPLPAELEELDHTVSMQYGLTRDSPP
Mitogen-activated protein kinase 1, sequence (P28482 whole entry): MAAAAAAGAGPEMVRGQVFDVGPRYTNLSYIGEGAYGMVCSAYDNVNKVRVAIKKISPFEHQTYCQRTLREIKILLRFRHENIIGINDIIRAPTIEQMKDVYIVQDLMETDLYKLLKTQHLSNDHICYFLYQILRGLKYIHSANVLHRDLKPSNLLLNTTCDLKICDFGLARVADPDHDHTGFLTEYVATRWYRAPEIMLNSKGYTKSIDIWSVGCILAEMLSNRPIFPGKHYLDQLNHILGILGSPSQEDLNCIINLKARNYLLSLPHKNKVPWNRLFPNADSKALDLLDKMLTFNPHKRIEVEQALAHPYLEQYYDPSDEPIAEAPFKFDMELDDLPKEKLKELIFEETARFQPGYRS
Histamine H4 receptor (Homo sapiens), sequence (Q9H3N8 whole entry): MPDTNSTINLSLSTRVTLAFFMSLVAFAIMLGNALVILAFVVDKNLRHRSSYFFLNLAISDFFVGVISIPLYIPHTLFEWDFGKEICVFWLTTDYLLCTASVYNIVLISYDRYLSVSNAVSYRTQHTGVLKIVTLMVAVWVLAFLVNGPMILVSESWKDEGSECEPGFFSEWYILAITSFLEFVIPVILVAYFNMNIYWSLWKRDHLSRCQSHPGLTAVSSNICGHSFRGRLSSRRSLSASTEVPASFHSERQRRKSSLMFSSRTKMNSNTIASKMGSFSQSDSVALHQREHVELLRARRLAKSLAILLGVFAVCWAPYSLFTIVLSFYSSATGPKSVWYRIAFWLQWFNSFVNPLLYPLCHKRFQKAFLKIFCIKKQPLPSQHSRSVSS
Receptor-type tyrosine-protein kinase FLT3 (Homo sapiens), P36888 [UNDEFINED MUTATION], sequence (P36888 whole entry, looked up, change not shown): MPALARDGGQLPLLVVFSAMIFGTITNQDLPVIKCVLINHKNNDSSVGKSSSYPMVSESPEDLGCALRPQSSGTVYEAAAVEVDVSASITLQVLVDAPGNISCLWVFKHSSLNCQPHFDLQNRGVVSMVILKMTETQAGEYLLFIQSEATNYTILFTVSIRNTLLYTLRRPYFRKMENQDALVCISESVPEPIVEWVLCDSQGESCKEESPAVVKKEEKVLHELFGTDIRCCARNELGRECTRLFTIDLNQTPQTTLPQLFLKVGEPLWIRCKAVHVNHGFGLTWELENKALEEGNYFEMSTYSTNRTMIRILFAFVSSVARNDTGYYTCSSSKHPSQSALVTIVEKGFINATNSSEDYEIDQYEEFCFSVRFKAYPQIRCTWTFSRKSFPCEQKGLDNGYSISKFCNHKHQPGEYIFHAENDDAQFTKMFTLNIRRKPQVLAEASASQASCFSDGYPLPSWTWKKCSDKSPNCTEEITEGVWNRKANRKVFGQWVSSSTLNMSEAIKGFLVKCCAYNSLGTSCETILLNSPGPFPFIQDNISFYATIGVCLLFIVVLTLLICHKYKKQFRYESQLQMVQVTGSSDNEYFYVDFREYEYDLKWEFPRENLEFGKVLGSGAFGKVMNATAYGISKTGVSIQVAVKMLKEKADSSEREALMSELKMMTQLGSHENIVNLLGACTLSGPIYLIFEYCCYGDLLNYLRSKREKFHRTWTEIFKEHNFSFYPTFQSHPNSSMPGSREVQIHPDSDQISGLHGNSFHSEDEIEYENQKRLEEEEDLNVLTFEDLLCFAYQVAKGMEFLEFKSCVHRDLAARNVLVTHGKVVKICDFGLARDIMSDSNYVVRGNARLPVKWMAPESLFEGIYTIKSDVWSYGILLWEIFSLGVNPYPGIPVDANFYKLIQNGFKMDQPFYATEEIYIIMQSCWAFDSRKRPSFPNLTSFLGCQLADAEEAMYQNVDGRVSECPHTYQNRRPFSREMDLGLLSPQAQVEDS

In the case of `N#Cc1cccc(-c2c[nH]c3ncnc(N4CCOCC4)c23)c1`, in [1], the % of inhibition worked out at 3%.

`CCN(CC)CCCCNc1ncc2cc(-c3cc(OC)cc(OC)c3)c(NC(=O)NC(C)(C)C)nc2n1` had a % of control in [2] of 100%.

As for `CNC(=O)Nc1ccc(-c2nc(N3CC4CCC(C3)O4)c3cnn(C4CCC5(CC4)OCCO5)c3n2)cc1`, the % of control in [3] stood at 100%.

For the molecule `C=CC(=O)Nc1cc(-n2c(=O)ccc3cnc4ccc(-c5ccc(NS(C)(=O)=O)cc5)cc4c32)ccc1C`, the % of control in test [4] (at 1 µM) came out at 92%; in [4] (at 10 µM), 100%; in test [5] (at 1 µM) it was 91%; in [5] (at 10 µM) it was 100%; in [6] (at 1 µM), 29%; in test [6] (at 10 µM), 6%.

For `CN1Cc2nccc(-c3cn(C)nc3-c3ccc(F)cc3)c2C1=O`, in test [7], the % of inhibition is -10%.

`C=CC(=O)Nc1cccc(C(=O)Nc2ccc(Nc3cc(-c4[nH]c(SC)nc4C)ccn3)cc2)c1`: the % of control in [8] (at 1 µM) was 95%; in test [8] (at 5 µM) it was 70%.

Regarding `COc1cc(Nc2nc(C)cc(-c3cnn4nc(OC)ccc34)n2)cc(C(F)(F)F)c1`, the % of control in test [9] amounted to 77%; in test [10] it was 90%.

As for `Nc1cnc(N2CCc3cc(S(=O)(=O)Nc4c(F)cc(Cl)cc4F)cc(N4CCCC4=O)c32)nc1` [TP-020n], in test [11], the % of inhibition is -0.37%.

In the case of `COc1cc(N(C)c2ccnc3ccc(C(F)(F)F)cc23)cc(OC)c1OC`, the % binding in test [12] was 92%.

In the case of `C=CC(=O)Nc1ccc(C(=O)Nc2[nH]nc3c2CN(C(=O)N[C@H](CN(C)C)c2ccccc2)C3(C)C)cc1`, the % of engagement in test [13] was found to be 53.5%.
